Results as given in ChEMBL document CHEMBL3991601, “The target landscape of clinical kinase drugs” (Science, 2017).
Active and inactive are the calls of the source. Rule as the data show it, for most assays here: actives have a measured Kd and inactives only a lower limit.

Assays:
[1] = target: T1, Glycogen phosphorylase, liver form (Homo sapiens, UniProt P06737); format: subcellular, K-562, COLO 205, SK-N-BE(2) and MV-4-11, Cell lysate; conditions: read-out: Kd apparent
T1 sequence (P06737 whole entry): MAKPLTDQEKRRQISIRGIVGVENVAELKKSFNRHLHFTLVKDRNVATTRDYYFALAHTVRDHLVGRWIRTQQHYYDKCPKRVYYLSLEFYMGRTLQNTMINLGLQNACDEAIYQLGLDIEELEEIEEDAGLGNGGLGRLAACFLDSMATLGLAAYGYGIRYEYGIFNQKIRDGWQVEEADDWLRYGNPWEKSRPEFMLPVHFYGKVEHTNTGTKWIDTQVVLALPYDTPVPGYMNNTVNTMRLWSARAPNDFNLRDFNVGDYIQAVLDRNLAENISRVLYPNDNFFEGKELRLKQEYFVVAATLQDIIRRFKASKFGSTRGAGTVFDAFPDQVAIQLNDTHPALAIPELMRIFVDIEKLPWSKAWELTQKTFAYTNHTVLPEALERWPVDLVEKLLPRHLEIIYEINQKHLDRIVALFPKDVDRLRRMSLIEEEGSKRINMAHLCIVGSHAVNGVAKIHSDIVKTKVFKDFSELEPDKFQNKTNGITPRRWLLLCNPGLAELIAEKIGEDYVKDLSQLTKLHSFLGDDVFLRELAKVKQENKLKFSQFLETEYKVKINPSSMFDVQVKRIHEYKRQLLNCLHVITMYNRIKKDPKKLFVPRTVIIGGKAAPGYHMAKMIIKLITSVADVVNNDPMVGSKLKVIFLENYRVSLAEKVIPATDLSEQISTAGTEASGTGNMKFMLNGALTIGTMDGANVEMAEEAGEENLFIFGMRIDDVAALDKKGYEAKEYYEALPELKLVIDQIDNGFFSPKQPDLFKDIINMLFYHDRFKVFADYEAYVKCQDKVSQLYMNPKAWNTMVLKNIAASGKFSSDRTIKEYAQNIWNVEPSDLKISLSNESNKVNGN

[2] = target: T2, Acyl-CoA dehydrogenase family member 11 (Homo sapiens, UniProt Q709F0)
T2 sequence (Q709F0 whole entry): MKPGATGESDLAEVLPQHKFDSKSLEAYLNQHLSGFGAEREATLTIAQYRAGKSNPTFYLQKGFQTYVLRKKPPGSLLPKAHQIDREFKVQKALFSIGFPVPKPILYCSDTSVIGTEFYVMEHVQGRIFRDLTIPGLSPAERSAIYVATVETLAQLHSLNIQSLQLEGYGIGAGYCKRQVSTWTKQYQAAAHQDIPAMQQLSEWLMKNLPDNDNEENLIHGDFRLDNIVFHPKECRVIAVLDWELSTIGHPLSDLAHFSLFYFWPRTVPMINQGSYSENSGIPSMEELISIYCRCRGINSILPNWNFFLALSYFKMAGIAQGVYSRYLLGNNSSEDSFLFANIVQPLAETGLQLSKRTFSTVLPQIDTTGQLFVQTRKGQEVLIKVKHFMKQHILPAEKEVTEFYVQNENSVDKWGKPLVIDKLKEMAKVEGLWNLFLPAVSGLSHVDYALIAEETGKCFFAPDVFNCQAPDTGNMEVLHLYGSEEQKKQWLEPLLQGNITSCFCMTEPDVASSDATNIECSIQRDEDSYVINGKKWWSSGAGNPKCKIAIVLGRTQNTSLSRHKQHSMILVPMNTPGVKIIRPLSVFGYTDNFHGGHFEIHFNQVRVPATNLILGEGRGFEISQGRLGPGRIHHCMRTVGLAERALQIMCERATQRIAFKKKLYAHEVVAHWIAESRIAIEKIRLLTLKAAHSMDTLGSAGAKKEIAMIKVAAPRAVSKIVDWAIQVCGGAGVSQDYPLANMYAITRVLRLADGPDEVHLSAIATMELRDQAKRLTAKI

[3] = target: Casein kinase I isoform epsilon (Homo sapiens, UniProt P49674)
Chain of Casein kinase I isoform epsilon (P49674 whole entry, canonical isoform): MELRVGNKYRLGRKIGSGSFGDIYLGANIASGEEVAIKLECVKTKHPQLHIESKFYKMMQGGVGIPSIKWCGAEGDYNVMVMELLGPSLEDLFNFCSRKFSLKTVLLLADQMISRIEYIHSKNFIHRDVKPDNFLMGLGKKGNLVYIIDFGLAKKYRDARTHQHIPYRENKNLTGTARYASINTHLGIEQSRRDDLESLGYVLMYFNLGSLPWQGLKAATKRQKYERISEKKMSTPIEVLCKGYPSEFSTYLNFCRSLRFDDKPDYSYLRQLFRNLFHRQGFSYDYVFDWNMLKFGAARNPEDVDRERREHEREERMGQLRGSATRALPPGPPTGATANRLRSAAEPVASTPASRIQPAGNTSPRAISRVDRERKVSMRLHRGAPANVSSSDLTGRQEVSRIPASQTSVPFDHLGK

[4] = target: T3, Serine/threonine-protein kinase LATS1 (Homo sapiens, UniProt O95835)
T3 sequence (O95835 whole entry): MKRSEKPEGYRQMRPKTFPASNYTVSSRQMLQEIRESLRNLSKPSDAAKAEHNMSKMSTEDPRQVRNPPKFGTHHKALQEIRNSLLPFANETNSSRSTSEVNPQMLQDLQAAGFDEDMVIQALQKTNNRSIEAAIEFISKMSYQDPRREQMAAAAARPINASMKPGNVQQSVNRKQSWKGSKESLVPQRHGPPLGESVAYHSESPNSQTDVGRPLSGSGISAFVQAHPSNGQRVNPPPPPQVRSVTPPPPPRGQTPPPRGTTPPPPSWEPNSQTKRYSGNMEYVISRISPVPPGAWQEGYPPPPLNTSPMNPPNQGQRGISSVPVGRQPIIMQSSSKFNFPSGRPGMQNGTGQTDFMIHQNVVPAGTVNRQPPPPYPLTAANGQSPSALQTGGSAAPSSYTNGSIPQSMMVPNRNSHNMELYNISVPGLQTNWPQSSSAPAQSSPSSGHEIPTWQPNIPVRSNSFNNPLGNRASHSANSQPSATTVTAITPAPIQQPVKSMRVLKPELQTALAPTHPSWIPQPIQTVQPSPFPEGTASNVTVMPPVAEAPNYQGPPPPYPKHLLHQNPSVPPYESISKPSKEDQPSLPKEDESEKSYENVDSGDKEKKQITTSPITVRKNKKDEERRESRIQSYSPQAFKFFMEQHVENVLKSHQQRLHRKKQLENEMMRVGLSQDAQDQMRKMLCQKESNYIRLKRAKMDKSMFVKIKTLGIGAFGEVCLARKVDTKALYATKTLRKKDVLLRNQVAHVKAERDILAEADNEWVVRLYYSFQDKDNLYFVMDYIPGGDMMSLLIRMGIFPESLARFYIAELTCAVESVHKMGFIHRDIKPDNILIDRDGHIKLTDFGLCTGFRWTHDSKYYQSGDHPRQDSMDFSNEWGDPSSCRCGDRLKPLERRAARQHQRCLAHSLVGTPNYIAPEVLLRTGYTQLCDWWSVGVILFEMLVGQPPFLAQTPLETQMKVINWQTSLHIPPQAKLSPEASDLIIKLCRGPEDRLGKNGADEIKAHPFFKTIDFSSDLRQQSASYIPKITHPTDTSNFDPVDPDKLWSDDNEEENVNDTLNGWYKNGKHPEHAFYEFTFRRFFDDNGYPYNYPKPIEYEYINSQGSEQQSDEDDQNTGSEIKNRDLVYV

[5] = target: LIM domain kinase 2 (Homo sapiens, UniProt P53671)
Chain of LIM domain kinase 2 (P53671 whole entry, the tested form may be a part): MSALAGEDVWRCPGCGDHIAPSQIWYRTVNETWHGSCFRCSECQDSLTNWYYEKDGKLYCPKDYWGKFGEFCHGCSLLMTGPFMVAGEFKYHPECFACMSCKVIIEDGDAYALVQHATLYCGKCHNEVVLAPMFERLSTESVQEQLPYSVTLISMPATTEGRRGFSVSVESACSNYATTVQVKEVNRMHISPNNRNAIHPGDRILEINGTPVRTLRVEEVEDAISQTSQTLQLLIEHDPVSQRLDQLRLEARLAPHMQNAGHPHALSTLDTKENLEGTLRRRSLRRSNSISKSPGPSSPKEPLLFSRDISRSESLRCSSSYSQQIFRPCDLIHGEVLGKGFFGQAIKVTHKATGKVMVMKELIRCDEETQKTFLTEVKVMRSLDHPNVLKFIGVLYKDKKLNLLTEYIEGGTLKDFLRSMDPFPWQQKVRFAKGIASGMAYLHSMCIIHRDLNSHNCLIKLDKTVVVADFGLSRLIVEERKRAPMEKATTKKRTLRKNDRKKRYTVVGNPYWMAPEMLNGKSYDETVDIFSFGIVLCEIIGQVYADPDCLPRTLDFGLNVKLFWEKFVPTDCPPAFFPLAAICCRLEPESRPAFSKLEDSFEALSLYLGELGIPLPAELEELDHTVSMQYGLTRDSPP

[6] = target: Ribosomal protein S6 kinase alpha-5 (Homo sapiens, UniProt O75582)
Chain of Ribosomal protein S6 kinase alpha-5 (O75582 whole entry): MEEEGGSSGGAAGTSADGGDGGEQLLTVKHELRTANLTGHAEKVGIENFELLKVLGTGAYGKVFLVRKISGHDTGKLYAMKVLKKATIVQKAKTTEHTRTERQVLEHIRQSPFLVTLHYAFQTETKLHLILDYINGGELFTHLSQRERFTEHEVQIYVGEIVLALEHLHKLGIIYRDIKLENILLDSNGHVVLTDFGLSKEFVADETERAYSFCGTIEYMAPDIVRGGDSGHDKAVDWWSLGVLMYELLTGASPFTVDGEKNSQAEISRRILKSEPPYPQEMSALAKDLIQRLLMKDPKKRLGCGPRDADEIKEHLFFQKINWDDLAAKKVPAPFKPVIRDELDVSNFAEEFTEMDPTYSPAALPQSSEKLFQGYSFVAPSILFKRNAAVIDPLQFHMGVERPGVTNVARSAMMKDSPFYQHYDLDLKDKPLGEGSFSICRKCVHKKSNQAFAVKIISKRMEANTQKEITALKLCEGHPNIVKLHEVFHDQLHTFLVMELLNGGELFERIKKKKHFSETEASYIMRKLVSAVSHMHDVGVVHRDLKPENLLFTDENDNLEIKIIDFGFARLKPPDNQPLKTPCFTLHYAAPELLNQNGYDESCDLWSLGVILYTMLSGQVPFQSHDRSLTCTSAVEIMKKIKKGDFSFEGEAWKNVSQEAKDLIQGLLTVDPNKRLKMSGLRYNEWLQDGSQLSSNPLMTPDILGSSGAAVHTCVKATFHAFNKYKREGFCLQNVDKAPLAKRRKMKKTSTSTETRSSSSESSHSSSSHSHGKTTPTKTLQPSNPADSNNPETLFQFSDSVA
Also: in the data inactive means no Kd found up to 30 µM.

| SMILES | Kd [1] | Kd [2] | Kd [3] | Kd [4] | Kd [5] | Kd [6] |
| --- | --- | --- | --- | --- | --- | --- |
| COc1c(OCCCN2CCOCC2)ccc2c1N=C(NC(=O)c1cnc(N)nc1)N1CCN=C21 [COPANLISIB] | > 30 µM (inactive) | > 30 µM (inactive) | > 30 µM (inactive) | > 30 µM (inactive) | > 30 µM (inactive) | > 30 µM (inactive) |
| O=c1[nH]ccc2cc(OC3CCNCC3)ccc12 [SAR-407899 FREE BASE] | > 30 µM (inactive) | > 30 µM (inactive) | > 30 µM (inactive) | > 30 µM (inactive) | > 30 µM (inactive) | > 30 µM (inactive) |
| CNC(=O)c1cccc2cc(Oc3ccnc4cc(OCC5(N)CC5)c(OC)cc34)ccc12 [LUCITANIB] | > 30 µM (inactive) | > 30 µM (inactive) | > 30 µM (inactive) | > 30 µM (inactive) | > 30 µM (inactive) | > 30 µM (inactive) |
| NC(=O)Nc1cc(-c2cccc(F)c2)sc1C(=O)N[C@H]1CCCNC1 [AZD-7762] | > 30 µM (inactive) | > 30 µM (inactive) | > 30 µM (inactive) | > 30 µM (inactive) | > 30 µM (inactive) | > 30 µM (inactive) |
| O=C(Nc1c[nH]nc1-c1nc2cc(CN3CCOCC3)ccc2[nH]1)NC1CC1 [AT-9283] | > 30 µM (inactive) | > 30 µM (inactive) | > 30 µM (inactive) | 0.045 µM (active) | 4.43 µM (active) | 1.25 µM (active) |
| Cn1cc(-c2cnn3c(N)c(Br)c([C@@H]4CCCNC4)nc23)cn1 [SCH-900776] | > 30 µM (inactive) | > 30 µM (inactive) | > 30 µM (inactive) | 4.62 µM (active) | > 30 µM (inactive) | > 30 µM (inactive) |
| CCn1c(C(=O)N(C2CC2)C2CC2)cc2c3c(ncn3C)c(Nc3cc(C)n(C)n3)nc21 [BMS-911543] | > 30 µM (inactive) | > 30 µM (inactive) | > 30 µM (inactive) | > 30 µM (inactive) | > 30 µM (inactive) | > 30 µM (inactive) |
| FC(F)(F)c1ccc(/C=C/c2nc(COc3ccc(CCCCn4ccnn4)cc3)co2)cc1 [MUBRITINIB] | > 30 µM (inactive) | > 30 µM (inactive) | > 30 µM (inactive) | > 30 µM (inactive) | > 30 µM (inactive) | > 30 µM (inactive) |
